pEC50, pIC50: −log10 of the molar value.
Legend:
GSK 3α enzyme isoform = biological target: T1, GSK 3α enzyme isoform (Homo sapiens, UniProt P49840); assay: GSK 3α enzyme inhibition (Z-LYTE FRET); assay type: biochemical; conditions: for pIC50: Table 2A, read-out: IC50 Values for Enzyme Inhibition GSK3α
T1 construct: purchased Life Technologies
Protocol: (§1) The enzyme inhibitory activities of compounds disclosed herein were determined by FRET using synthetic peptides labelled with both donor and acceptor fluorophores (Z-LYTE, Life Technologies, Paisley, UK).
The GSK3a protein (500 ng/mL, 2.5 μL) was incubated with the test compound (2.5 μL at either 40 μg/mL, 12 μg/mL, 4 μg/mL, 1.2 μg/mL, 0.4 μg/mL, 0.12 μg/mL, 0.04 μg/mL, 0.012 μg/mL, 0.004 μg/mL or 0.0012 μg/mL) for 2 h at RT. The FRET peptide (8 μM, 2.5 μL), which is a phosphorylation target for GSK3α, and ATP (40 μM, 2.5 μL) was then added to the enzyme/compound mixture and the resulting mixture incubated for 1 h at RT. Development reagent (protease, 5 μL) was added for 1 h prior to detection in a fluorescence microplate reader (EnVision, Perkin Elmer).
(§2) In all cases, the site-specific protease cleaves non-phosphorylated peptide only and eliminates the FRET signal. Phosphorylation levels of each reaction were calculated using the ratio of coumarin emission (donor) over fluorescein emission (acceptor), for which low ratios indicate high phosphorylation and high ratios indicate low phosphorylation levels.

[1] = system: TNFα release in d-U937 cells; assay: LPS-induced TNFα release in d-U937 cells; assay type: cell-based; conditions: Homo sapiens, dU937; read-out: LPS Induced Release TNFα REC50 (dU937); also: relative to 10 µg/mL BIRB-796
Protocol: (§3) U937 cells, a human monocytic cell line, were differentiated into macrophage-type cells by incubation with PMA (100-200 ng/mL) for 48 to 72 h. Cells were pre-incubated with final […] concentrations of test compound for 2 h and were then stimulated with LPS (0.1 μg/mL; from E. coli: O111:B4, Sigma) for 4 h. The supernatant was collected for determination of TNFα and IL-8 concentrations by sandwich ELISA (Duo-set, R&D systems). […] The relative 50% effective concentration (REC50) was determined from the resultant concentration-response curve. The inhibition of IL-8 production was calculated at each concentration of test compound by comparison with vehicle control.

[2] = system: IL-8 release in d-U937 cells; assay: LPS-induced IL-8 release in d-U937 cells; assay type: cell-based; conditions: Homo sapiens, dU937, LPS 0.1 μg/mL 4 h
Protocol: as §3

[3] = system: ICAM-1 expression in BEAS2B cells; assay: Poly I:C-induced ICAM-1 expression in BEAS2B cells; assay type: cell-based; conditions: Homo sapiens, BEAS-2B, read-out: PolyIC/ICAM1 IC50 (BEAS2B)
Protocol: Poly I:C was used in these studies as a simple, RNA virus mimic. Poly I:C-Oligofectamine mixture (2% Oligofectamine±1 μg/mL Poly I:C, 25 μL; Life Technologies and Invivogen Ltd., San Diego, Calif., respectively) was transfected into BEAS2B cells (human bronchial epithelial cells, ATCC). Cells were pre-incubated with final concentrations of test compounds for 2 h and the level of ICAM-1 expression on the cell surface was determined by cell-based ELISA. At a time point 18 h after poly I:C transfection, cells were fixed with 4% formaldehyde in PBS (100 μL) and then endogenous peroxidase was quenched by the addition of washing buffer (100 μL, 0.05% Tween in PBS: PBS-Tween) containing 0.1% sodium azide and 1% hydrogen peroxide. Cells were washed with wash-buffer (3×200 μL). After blocking the wells with 5% milk in PBS-Tween (100 μL) for 1 h, the cells were incubated with anti-human ICAM-1 antibody (50 μL; Cell Signaling Technology, Danvers, Mass.) in 1% BSA PBS overnight at 4° C.
The cells were washed with PBS-Tween (3×200 μL) and incubated with the secondary antibody (100 μL; HRP-conjugated anti-rabbit IgG, Dako Ltd., Glostrup, Denmark). The cells were then incubated with of substrate (50 μL) for 2-20 min, followed by the addition of stop solution (50 μL, 1N H2SO4). The ICAM-1 signal was detected by reading the absorbance at 450 nm against a reference wavelength of 655 nm using a spectrophotometer. The cells ware then washed with PBS-Tween (3×200 μL) and total cell numbers in each well were determined by reading absorbance at 595 nm after Crystal Violet staining (50 μL of a 2% solution in PBS) and elution by 1% SDS solution (100 μL) in PBS. The measured OD 450-655 readings were corrected for cell number by dividing with the OD595 reading in each well. The inhibition of ICAM-1 expression was calculated at each concentration of test compound by comparison with vehicle control.

Hck = biological target: T2, Hck (Homo sapiens, UniProt P08631); assay: Hck enzyme inhibition (Z-LYTE FRET); assay type: biochemical; conditions: Table 2A
T2 construct: purchased Life Technologies
Protocol: as §1
The relevant enzyme (1000 ng/mL, 1400 ng/mL or 2000 ng/mL respectively, 2.5 μL) was incubated with the test compound (either 40 μg/mL, 12 μg/mL, 4 μg/mL, 1.2 μg/mL, 0.4 μg/mL, 0.12 μg/mL, 0.04 μg/mL, 0.012 μg/mL, 0.004 μg/mL or 0.0012 μg/mL, 2.5 μL each) for 2 h at RT. The FRET peptides (8 μM, 2.5 μL), and appropriate ATP solutions (2.5 μL, 800 μM for c-Src, and 60 μM ATP for HCK and Syk) were then added to the enzyme/compound mixtures and incubated for 1 h at RT. Development reagent (protease, 5 μL) was added for 1 h prior to detection in a fluorescence microplate reader (EnVision, Perkin Elmer).
as §2

[4] = biological target: T3, p38 MAPKα isoform (MAPK14) (Homo sapiens, UniProt Q16539); assay: p38 MAPKα enzyme inhibition (Z-LYTE FRET); assay type: biochemical; conditions: Table 2A; read-out: IC50 Values for Enzyme Inhibition p38 MAPKα
T3 construct: purchased Life Technologies
How it was run: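 Recombinant human MAPK14 (40 ng/mL stock) was preincubated 2 h at RT with compound (stock dilutions 0.0012-40 μg/mL). The Z-LYTE FRET read-out used a MAPKAP-K2-derived peptide, and protease development for 1 h cleaved only non-phosphorylated peptide. Phosphorylation was calculated from the coumarin/fluorescein emission ratio.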

T3 sequence (Q16539 whole entry, canonical isoform): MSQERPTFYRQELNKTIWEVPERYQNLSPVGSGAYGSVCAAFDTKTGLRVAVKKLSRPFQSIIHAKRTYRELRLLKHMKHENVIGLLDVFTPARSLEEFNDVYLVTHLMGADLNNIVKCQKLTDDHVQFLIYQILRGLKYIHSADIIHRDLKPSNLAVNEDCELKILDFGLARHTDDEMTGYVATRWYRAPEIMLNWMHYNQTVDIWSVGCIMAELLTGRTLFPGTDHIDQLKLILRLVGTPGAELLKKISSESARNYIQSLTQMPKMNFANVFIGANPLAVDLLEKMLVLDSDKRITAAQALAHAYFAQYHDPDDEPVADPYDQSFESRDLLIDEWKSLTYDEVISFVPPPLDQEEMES
T2 sequence (P08631 22-526): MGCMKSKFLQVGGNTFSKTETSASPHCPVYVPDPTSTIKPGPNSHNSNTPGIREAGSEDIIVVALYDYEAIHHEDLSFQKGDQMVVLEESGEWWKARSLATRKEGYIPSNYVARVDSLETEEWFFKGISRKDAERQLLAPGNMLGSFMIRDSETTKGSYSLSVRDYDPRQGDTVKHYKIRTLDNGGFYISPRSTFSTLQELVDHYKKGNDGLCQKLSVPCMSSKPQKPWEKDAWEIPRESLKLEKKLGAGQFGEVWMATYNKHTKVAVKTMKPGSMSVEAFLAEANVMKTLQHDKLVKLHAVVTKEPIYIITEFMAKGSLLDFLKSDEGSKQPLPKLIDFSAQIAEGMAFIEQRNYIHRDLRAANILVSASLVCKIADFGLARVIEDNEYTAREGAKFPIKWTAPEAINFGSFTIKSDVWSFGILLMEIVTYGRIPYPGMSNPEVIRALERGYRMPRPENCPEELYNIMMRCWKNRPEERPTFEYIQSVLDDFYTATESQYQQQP
T1 sequence (P49840 whole entry, canonical isoform): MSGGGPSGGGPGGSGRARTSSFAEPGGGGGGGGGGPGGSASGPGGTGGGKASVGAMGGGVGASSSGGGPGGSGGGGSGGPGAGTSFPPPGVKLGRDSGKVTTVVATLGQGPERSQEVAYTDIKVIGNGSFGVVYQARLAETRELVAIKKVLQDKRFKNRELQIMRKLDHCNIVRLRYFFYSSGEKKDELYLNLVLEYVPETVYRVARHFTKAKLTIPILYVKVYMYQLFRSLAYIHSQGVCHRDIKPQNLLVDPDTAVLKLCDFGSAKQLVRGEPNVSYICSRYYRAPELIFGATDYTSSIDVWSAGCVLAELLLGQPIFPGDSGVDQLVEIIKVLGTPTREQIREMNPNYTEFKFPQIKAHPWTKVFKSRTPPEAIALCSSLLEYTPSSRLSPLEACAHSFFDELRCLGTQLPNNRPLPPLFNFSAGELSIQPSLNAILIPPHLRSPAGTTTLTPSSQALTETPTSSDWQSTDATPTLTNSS

Row | Structure (SMILES) | pIC50 (GSK 3α enzyme isoform) | pEC50 [1] | pIC50 [2] | pIC50 [3] | pIC50 (Hck) | pIC50 [4] | inhibitory activity against GSK3a (in words) (GSK 3α enzyme isoform)
1 | Cc1cc(-n2nc(C(C)(C)C)cc2NC(=O)Nc2ccc(OCc3ccnc(Nc4cnccn4)c3)c3ccccc23)cs1 (single isomer, unassigned) [Example 31] | 4.95 | 9.00 | 7.48 | 6.06 | 7.23 | 8.40 | –
2 | Cc1ccc(-n2nc(C(C)(C)C)cc2NC(=O)Nc2ccc(OCc3ccnc(Nc4cnccn4)c3)c3ccccc23)cc1 [Example 1, 1-(3-(tert-Butyl)-1-(p-tolyl)-1H-pyrazol-5-yl)-3-(4-((2-(pyrazin-2-ylamino)pyridin-4-yl)methoxy)naphthalen-1-yl)urea] | < 4.78 | 8.80 | 7.89 | 7.09 | 7.54 | 7.60 | very much weaker than the Reference Compound
3 | COCCNC(=O)c1cnc(Nc2cc(COc3ccc(NC(=O)Nc4cc(C(C)(C)C)nn4-c4ccc(C)cc4)c4ccccc34)ccn2)cn1 [Example 3] | < 4.84 | 8.26 | 8.06 | 6.34 | 7.18 | 8.05 | –
4 | Cc1ccc(-n2nc(C(C)(C)C)cc2NC(=O)Nc2ccc(OCc3ccnc(Nc4cnc(C)c(C)n4)c3)c3ccccc23)cc1 [Example 4, 1-(3-(tert-Butyl)-1-(p-tolyl)-1H-pyrazol-5-yl)-3-(4-((2-((5,6-dimethylpyrazin-2-yl)amino)pyridin-4-yl)methoxy)naphthalen-1-yl)urea] | < 5.30 | 7.59 | 7.60 | < 5.80 | 6.95 | 7.66 | –
5 | Cc1ccc(-n2nc(C(C)(C)C)cc2NC(=O)Nc2ccc(OCc3ccnc(Nc4cnc(CN)cn4)c3)c3ccccc23)cc1 [Example 5, 1-(4-((2-((5-(Aminomethyl)pyrazin-2-yl)amino)pyridin-4-yl)methoxy)naphthalen-1-yl)-3-(3-(tert-butyl)-1-(p-tolyl)-1H-pyrazol-5-yl)urea] | 5.56 | 8.55 | 8.62 | 6.32 | > 9.32 | > 9.32 | –
6 | CC(=O)NCc1cnc(Nc2cc(COc3ccc(NC(=O)Nc4cc(C(C)(C)C)nn4-c4ccc(C)cc4)c4ccccc34)ccn2)cn1 [Example 6, N-((5-((4-(((4-(3-(3-(tert-butyl)-1-(p-tolyl)-1H-pyrazol-5-yl)ureido)naphthalen-1-yl)oxy)methyl)pyridin-2-yl)amino)pyrazin-2-yl)methyl)acetamide] | 6.04 | 8.07 | 7.04 | 7.28 | 8.00 | 8.52 | –
7 | CNC(=O)c1cnc(Nc2cc(COc3ccc(NC(=O)Nc4cc(C(C)(C)C)nn4-c4ccc(C)cc4)c4ccccc34)ccn2)cn1 [Example 7, 5-((4-(((4-(3-(3-(tert-Butyl)-1-(p-tolyl)-1H-pyrazol-5-yl)ureido)naphthalen-1-yl)oxy)methyl)pyridin-2-yl)amino)-N-methylpyrazine-2-carboxamide] | < 4.82 | 7.97 | 7.78 | < 5.82 | 7.19 | 7.82 | –
8 | Cc1ccc(-n2nc(C(C)(C)C)cc2NC(=O)Nc2ccc(OCc3ccnc(Nc4cncc(CC(=O)N(C)C)n4)c3)c3ccccc23)cc1 [Example 8, 2-(6-((4-(((4-(3-(3-(tert-butyl)-1-(p-tolyl)-1H-pyrazol-5-yl)ureido)naphthalen-1-yl)oxy)methyl)pyridin-2-yl)amino)pyrazin-2-yl)-N,N-dimethylacetamide] | 6.86 | 8.41 | 7.99 | 7.50 | 8.00 | 9.00 | –
9 | Cc1ccc(-n2nc(C(C)(C)C)cc2NC(=O)Nc2ccc(OCc3ccnc(Nc4cnc(C(=O)N(C)C)cn4)c3)c3ccccc23)cc1 [Example 9, 5-((4-(((4-(3-(3-(tert-Butyl)-1-(p-tolyl)-1H-pyrazol-5-yl)ureido)naphthalen-1-yl)oxy)methyl)pyridin-2-yl)amino)-N,N-dimethylpyrazine-2-carboxamide] | 5.48 | 8.89 | 8.06 | 7.14 | 5.82 | 6.87 | –
10 | Cc1ccc(-n2nc(C(C)(C)C)cc2NC(=O)Nc2ccc(OCc3ccnc(Nc4cnc(CO)cn4)c3)c3ccccc23)cc1 [Example 10, 1-(3-(tert-Butyl)-1-(p-tolyl)-1H-pyrazol-5-yl)-3-(4-((2-((5-(hydroxymethyl)pyrazin-2-yl)amino)pyridin-4-yl)methoxy)naphthalen-1-yl)urea] | < 4.80 | 8.55 | 7.82 | 7.49 | 7.80 | 8.10 | –
11 | Cc1ccc(-n2nc(C(C)(C)C)cc2NC(=O)Nc2ccc(OCc3ccnc(Nc4cncc(C#N)n4)c3)c3ccccc23)cc1 [Example 11] | < 4.79 | 8.64 | 7.90 | < 5.80 | < 5.05 | 7.28 | –
12 | COc1ccc(-n2nc(C(C)(C)C)cc2NC(=O)Nc2ccc(OCc3ccnc(Nc4cnccn4)c3)c3ccccc23)cn1 [Example 12] | < 4.79 | 7.77 | 8.03 | 6.62 | 7.41 | 7.85 | –
13 | Cc1ccc(-n2nc(C(C)(C)C)cc2NC(=O)Nc2ccc(OCc3ccnc(Nc4cnccn4)c3)c3ccccc23)s1 [Example 13] | < 4.83 | 7.74 | 8.11 | 6.25 | 7.31 | 8.05 | –
14 | Cc1ccc(-n2nc(C(C)(C)C)cc2NC(=O)Nc2ccc(OCc3ccnc(Nc4cncc(N(C)C)n4)c3)c3ccccc23)cc1 [Example 14] | 5.47 | 8.54 | 8.26 | 7.19 | 8.22 | 7.92 | –
15 | Cc1ccc(-n2nc(C(C)(C)C)cc2NC(=O)Nc2ccc(OCc3ccnc(Nc4cncc(C5CC5)n4)c3)c3ccccc23)cc1 [Example 15] | 5.44 | 8.68 | 8.72 | 7.80 | 7.82 | 7.02 | –

Source: patent publication US11142515B2, “Pyrazolyl-ureas as kinase inhibitors” (RESPIVERT LIMITED, priority 2014, dated 2021)
